Measurements from ChEMBL document CHEMBL6115000, “Discovery of a first-in-class PROTAC degrader of histone lysine demethylase KDM4” (Eur J Med Chem, 2025).
Activity calls are given as the source filed them. The calls are words filed in the database; no cut-off is given here.

Experiments:
[1] = Induction of cell cycle arrest in human KYSE-150 cells assessed as accumulation of cells at G2/M phase at 111.1 nM incubated for 24 hrs by flow cytometry (reference value: 21.64 %); format: functional
[2] = target: T1, von Hippel-Lindau disease tumor suppressor/Lysine-specific demethylase 4A (Homo sapiens, UniProt O75164+P40337); experiment: PROTAC activity at VHL/KDM4A in human KYSE-150 cells assessed as induction of KDM4A degradation at 1 uM incubated for 12 hrs by Western blot analysis relative to control; format: cell-based; conditions: KYSE-150 cell line
Target sequence in this assay (O75164 2-1064 limits assumed): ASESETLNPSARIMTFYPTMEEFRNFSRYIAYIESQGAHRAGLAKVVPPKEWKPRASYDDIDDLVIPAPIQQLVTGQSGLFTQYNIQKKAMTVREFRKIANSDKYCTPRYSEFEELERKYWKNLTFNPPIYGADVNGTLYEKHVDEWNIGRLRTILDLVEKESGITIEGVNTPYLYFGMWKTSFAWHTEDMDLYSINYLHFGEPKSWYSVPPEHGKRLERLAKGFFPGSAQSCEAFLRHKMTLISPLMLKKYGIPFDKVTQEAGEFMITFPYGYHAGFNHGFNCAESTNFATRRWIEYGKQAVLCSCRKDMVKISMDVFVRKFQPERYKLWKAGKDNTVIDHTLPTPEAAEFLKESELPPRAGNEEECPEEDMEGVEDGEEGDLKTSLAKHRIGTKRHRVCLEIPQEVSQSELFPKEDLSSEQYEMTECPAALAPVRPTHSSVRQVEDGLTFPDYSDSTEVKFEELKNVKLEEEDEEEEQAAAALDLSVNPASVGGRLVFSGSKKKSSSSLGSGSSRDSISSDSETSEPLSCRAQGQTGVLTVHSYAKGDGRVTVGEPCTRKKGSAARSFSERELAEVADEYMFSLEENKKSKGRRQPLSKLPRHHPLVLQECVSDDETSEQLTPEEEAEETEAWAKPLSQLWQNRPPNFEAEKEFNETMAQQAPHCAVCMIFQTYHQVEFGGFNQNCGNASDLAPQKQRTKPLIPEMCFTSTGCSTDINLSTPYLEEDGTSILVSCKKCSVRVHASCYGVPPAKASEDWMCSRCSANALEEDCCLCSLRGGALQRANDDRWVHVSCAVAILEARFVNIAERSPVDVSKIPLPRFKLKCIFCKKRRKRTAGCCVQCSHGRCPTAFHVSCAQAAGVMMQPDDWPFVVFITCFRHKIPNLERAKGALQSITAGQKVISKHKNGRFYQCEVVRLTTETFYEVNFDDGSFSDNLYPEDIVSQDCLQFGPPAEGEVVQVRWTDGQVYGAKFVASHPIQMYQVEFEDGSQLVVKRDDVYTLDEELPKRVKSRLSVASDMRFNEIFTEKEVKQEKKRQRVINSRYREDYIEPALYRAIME
Target sequence in this assay (P40337 whole entry partner): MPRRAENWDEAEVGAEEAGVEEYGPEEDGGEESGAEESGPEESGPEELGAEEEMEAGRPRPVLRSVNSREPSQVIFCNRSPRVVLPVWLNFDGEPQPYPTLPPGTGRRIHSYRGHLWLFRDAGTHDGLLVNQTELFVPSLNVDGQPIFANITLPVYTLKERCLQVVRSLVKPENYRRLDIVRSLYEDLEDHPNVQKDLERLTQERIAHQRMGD

[3] = Induction of cell cycle arrest in human KYSE-150 cells assessed as accumulation of cells at G2/M phase at 1000 nM incubated for 24 hrs by flow cytometry (reference value: 21.64 %); format: functional
[4] = Induction of cell cycle arrest in human KYSE-150 cells assessed as accumulation of cells at G0/G1 phase at 12.3 nM incubated for 24 hrs by flow cytometry (reference value: 65.08 %); format: functional
[5] = Induction of apoptosis in human KYSE-150 cells assessed as early apoptotic cells at 12.3 nM incubated for 72 hrs by Annexin V-PE/7-AAD staining based flow cytometry (reference value: 5.27 %); format: functional
[6] = target: T1, von Hippel-Lindau disease tumor suppressor/Lysine-specific demethylase 4A; experiment: PROTAC activity at VHL/KDM4A in human KYSE-150 cells assessed as induction of KDM4A degradation at 500 nM measured for 8 to 36 hrs by Western blot analysis; format: cell-based; conditions: KYSE-150 cell line, time 8-36 hrs
Target sequence in this assay (O75164 2-1064 limits assumed): as the sequence (O75164 2-1064 limits assumed) above
Target sequence in this assay (P40337 whole entry partner): as the sequence (P40337 whole entry partner) above

[7] = Induction of cell cycle arrest in human KYSE-150 cells assessed as accumulation of cells at S pahse at 1000 nM incubated for 24 hrs by flow cytometry (reference value: 13.15 %); format: functional
[8] = Induction of cell cycle arrest in human KYSE-150 cells assessed as accumulation of cells at G0/G1 phase at 111.1 nM incubated for 24 hrs by flow cytometry (reference value: 65.08 %); format: functional
[9] = target: T2, von Hippel-Lindau disease tumor suppressor/Lysine-specific demethylase 4B (Homo sapiens, UniProt P40337+O94953); experiment: PROTAC activity at VHL/KDM4B in human KYSE-150 cells assessed as induction of KDM4B degradation measured after 24 hrs by Western blot analysis; format: cell-based
[10] = Induction of cell cycle arrest in human KYSE-150 cells assessed as accumulation of cells at S pahse at 111.1 nM incubated for 24 hrs by flow cytometry (reference value: 13.15 %); format: functional
[11] = target: T1, von Hippel-Lindau disease tumor suppressor/Lysine-specific demethylase 4A; experiment: PROTAC activity at VHL/KDM4A in human KYSE-150 cells assessed as fold increase in H3K36me3 level at 1000 nM incubated for 24 hrs by Western blot analysis relative to control; format: cell-based; conditions: KYSE-150 cell line
Target sequence in this assay (O75164 2-1064 limits assumed): as the sequence (O75164 2-1064 limits assumed) above
Target sequence in this assay (P40337 whole entry partner): as the sequence (P40337 whole entry partner) above

[12] = Induction of apoptosis in human KYSE-150 cells assessed as necrotic cells at 12.3 nM incubated for 72 hrs by Annexin V-PE/7-AAD staining based flow cytometry (reference value: 4.28 %); format: functional
[13] = target: T2, von Hippel-Lindau disease tumor suppressor/Lysine-specific demethylase 4B; experiment: PROTAC activity at VHL/KDM4B in human KYSE-150 cells assessed as induction of KDM4B degradation upto 1000 nM by Western blot analysis; format: cell-based; conditions: KYSE-150 cell line
Target sequence in this assay (O94953 whole entry, looked up): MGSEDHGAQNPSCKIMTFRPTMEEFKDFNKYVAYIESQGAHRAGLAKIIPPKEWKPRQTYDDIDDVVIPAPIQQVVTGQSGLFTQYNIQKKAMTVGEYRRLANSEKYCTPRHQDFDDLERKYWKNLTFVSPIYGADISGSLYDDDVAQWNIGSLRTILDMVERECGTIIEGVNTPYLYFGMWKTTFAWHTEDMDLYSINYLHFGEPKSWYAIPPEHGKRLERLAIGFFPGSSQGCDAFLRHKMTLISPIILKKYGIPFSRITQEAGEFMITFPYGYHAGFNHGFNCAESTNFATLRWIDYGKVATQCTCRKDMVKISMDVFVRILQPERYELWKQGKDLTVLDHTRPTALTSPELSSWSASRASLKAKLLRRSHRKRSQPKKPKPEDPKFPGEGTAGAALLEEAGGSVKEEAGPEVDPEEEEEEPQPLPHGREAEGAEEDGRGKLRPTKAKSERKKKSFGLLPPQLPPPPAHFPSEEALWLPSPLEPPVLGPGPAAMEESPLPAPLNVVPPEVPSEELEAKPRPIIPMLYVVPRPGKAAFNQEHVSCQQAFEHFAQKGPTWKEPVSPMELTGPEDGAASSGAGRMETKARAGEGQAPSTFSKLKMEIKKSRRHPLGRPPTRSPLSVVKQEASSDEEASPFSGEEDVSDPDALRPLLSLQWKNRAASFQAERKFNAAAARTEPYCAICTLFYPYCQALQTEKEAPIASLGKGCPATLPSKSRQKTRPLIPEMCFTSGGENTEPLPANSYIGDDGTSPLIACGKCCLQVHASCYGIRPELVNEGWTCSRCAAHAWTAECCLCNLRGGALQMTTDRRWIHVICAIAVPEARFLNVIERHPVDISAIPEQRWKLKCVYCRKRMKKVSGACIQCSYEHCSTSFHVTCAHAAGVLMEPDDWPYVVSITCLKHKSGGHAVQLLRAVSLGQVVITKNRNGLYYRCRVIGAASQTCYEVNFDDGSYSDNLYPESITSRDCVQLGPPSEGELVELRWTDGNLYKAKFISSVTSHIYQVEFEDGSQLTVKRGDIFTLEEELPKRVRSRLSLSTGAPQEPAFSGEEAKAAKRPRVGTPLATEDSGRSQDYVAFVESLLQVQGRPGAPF
Target sequence in this assay (P40337 whole entry, looked up): as the sequence (P40337 whole entry partner) above

[14] = target: T3, von Hippel-Lindau disease tumor suppressor/Lysine-specific demethylase 4C (Homo sapiens, UniProt Q9H3R0+P40337); experiment: PROTAC activity at VHL/KDM4C in human KYSE-150 cells assessed as induction of KDM4C degradation measured after 24 hrs by Western blot analysis; format: cell-based
[15] = Induction of cell cycle arrest in human KYSE-150 cells assessed as accumulation of cells at G0/G1 phase at 1000 nM incubated for 24 hrs by flow cytometry (reference value: 65.08 %); format: functional
[16] = Induction of apoptosis in human KYSE-150 cells assessed as necrotic cells at 333.3 nM incubated for 72 hrs by Annexin V-PE/7-AAD staining based flow cytometry (reference value: 4.28 %); format: functional
[17] = Induction of apoptosis in human KYSE-150 cells assessed as viable cells at 1000 nM incubated for 72 hrs by Annexin V-PE/7-AAD staining based flow cytometry (reference value: 84.47 %); format: functional; conditions: read-out: Activity
[18] = target: T3, von Hippel-Lindau disease tumor suppressor/Lysine-specific demethylase 4C; experiment: PROTAC activity at VHL/KDM4C in human KYSE-150 cells assessed as induction of KDM4C degradation upto 1000 nM measured after 24 hrs by Western blot analysis relative to control; format: cell-based; conditions: KYSE-150 cell line
Target sequence in this assay (P40337 whole entry, looked up): as the sequence (P40337 whole entry partner) above
Target sequence in this assay (Q9H3R0 whole entry, looked up): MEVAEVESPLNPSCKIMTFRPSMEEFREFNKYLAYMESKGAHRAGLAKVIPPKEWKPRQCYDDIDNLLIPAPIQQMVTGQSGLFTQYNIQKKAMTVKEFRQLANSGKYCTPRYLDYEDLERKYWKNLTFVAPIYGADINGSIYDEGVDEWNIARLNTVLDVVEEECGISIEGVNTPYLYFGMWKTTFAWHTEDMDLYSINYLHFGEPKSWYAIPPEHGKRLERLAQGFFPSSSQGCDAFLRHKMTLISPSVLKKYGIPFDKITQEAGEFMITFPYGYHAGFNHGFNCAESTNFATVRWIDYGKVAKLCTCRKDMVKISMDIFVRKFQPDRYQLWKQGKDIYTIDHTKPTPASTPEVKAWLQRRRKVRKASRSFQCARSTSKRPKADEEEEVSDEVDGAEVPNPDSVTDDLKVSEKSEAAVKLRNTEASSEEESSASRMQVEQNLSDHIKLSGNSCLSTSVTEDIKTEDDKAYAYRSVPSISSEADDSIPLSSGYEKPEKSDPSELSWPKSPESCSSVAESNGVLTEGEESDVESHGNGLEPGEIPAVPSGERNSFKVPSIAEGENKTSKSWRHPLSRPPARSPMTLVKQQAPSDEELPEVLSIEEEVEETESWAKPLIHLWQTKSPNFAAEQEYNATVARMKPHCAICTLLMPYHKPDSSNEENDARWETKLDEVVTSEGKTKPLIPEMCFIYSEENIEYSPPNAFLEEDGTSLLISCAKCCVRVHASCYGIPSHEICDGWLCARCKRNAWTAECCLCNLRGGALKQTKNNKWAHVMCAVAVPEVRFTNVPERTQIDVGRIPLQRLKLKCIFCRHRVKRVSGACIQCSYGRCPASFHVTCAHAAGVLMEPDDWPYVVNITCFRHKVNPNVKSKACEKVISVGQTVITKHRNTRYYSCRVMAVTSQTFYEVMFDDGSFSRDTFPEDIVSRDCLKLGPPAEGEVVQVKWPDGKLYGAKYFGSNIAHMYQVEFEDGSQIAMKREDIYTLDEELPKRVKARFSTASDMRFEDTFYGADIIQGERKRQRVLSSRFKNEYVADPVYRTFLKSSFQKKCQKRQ

[19] = Induction of apoptosis in human KYSE-150 cells assessed as necrotic cells at 1000 nM incubated for 72 hrs by Annexin V-PE/7-AAD staining based flow cytometry (reference value: 4.28 %); format: functional
[20] = target: von Hippel-Lindau disease tumor suppressor/Lysine-specific demethylase 4D (Homo sapiens, UniProt Q6B0I6+P40337); experiment: PROTAC activity at VHL/KDM4D in human KYSE-150 cells assessed as induction of KDM4D degradation measured after 24 hrs by Western blot analysis; format: cell-based; conditions: kyse-150 cell line
von Hippel-Lindau disease tumor suppressor/Lysine-specific demethylase 4D, sequence (Q6B0I6 whole entry): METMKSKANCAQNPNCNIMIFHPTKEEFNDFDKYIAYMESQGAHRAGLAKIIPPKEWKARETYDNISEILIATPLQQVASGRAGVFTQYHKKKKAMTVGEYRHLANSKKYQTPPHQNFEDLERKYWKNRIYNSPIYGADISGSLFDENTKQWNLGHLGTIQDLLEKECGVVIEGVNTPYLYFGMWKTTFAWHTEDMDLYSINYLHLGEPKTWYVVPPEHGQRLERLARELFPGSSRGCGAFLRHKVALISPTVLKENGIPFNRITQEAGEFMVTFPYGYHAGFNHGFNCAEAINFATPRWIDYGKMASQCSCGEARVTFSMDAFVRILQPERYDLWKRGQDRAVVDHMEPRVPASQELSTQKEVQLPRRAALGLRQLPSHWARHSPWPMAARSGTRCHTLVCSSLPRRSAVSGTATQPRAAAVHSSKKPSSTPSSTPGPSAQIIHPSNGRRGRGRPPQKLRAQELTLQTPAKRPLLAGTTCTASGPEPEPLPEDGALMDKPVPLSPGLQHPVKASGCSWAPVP
von Hippel-Lindau disease tumor suppressor/Lysine-specific demethylase 4D, sequence (P40337 whole entry): as the sequence (P40337 whole entry partner) above

[21] = Induction of apoptosis in human KYSE-150 cells assessed as late apoptotic cells at 12.3 nM incubated for 72 hrs by Annexin V-PE/7-AAD staining based flow cytometry (reference value: 5.98 %); format: functional
[22] = Induction of cell cycle arrest in human KYSE-150 cells assessed as accumulation of cells at S pahse at 37 nM incubated for 24 hrs by flow cytometry (reference value: 13.15 %); format: functional
[23] = Induction of apoptosis in human KYSE-150 cells assessed as necrotic cells at 111.1 nM incubated for 72 hrs by Annexin V-PE/7-AAD staining based flow cytometry (reference value: 4.28 %); format: functional
[24] = target: T1, von Hippel-Lindau disease tumor suppressor/Lysine-specific demethylase 4A; experiment: PROTAC activity at VHL/KDM4A in human KYSE-150 cells assessed as induction of KDM4A degradation measured after 24 hrs by Western blot analysis; format: cell-based
[25] = Induction of cell cycle arrest in human KYSE-150 cells assessed as accumulation of cells at G0/G1 phase at 333.3 nM incubated for 24 hrs by flow cytometry (reference value: 65.08 %); format: functional
[26] = target: T1, von Hippel-Lindau disease tumor suppressor/Lysine-specific demethylase 4A; experiment: PROTAC activity at VHL/KDM4A in human KYSE-150 cells assessed as increase in H3K36me3 level incubated for 24 hrs by Western blot analysis; format: cell-based; conditions: KYSE-150 cell line, dose <= 1000.0 nM
Target sequence in this assay (O75164 2-1064 limits assumed): as the sequence (O75164 2-1064 limits assumed) above
Target sequence in this assay (P40337 whole entry partner): as the sequence (P40337 whole entry partner) above

[27] = target: T1, von Hippel-Lindau disease tumor suppressor/Lysine-specific demethylase 4A; experiment: PROTAC activity at VHL/KDM4A in human KYSE-150 cells assessed as induction of KDM4A degradation at 0.1 uM incubated for 12 hrs by Western blot analysis relative to control; format: cell-based; conditions: KYSE-150 cell line
Target sequence in this assay (O75164 2-1064 limits assumed): as the sequence (O75164 2-1064 limits assumed) above
Target sequence in this assay (P40337 whole entry partner): as the sequence (P40337 whole entry partner) above

[28] = target: T1, von Hippel-Lindau disease tumor suppressor/Lysine-specific demethylase 4A; experiment: PROTAC activity at VHL/KDM4A in human KYSE-150 cells assessed as induction of KDM4A degradation at 50 nM incubated for 24 hrs in presence of MLN4924 by Western blot analysis; format: cell-based; conditions: KYSE-150 cell line
Target sequence in this assay (O75164 2-1064 limits assumed): as the sequence (O75164 2-1064 limits assumed) above
Target sequence in this assay (P40337 whole entry partner): as the sequence (P40337 whole entry partner) above

[29] = Induction of cell cycle arrest in human KYSE-150 cells assessed as accumulation of cells at G2/M phase at 37 nM incubated for 24 hrs by flow cytometry (reference value: 21.64 %); format: functional

Work on `Cc1ncsc1-c1ccc([C@H](C)NC(=O)[C@@H]2C[C@@H](O)CN2C(=O)[C@@H](NC(=O)CCCCCCCCCOc2ccc(N(C)c3ccc4c(c3)OCC[C@H]4CNc3cnccc3C(=O)O)cc2)C(C)(C)C)cc1` yielded an Activity [1] of 12.48%, an Activity [2] of 57.2% and an Activity [3] of 12.05%. The Activity [4] was 69.11%, the Activity [5] was 10.63% and the Activity [6] was “Active”. For the same molecule, the Activity [7] was 13.1%, the Activity [8] was 73.05% and the Activity ([9]; KYSE-150 cell line) was “Dose-dependent-effect”. It also gave a DC50 ([9]; kyse-150 cell line) of 39.9 nM, an Activity [10] of 14.35% and an FC [11] of 2. The Activity [12] was 6.02%, the Activity [13] was “Time-dependent-effect” and the Activity ([14]; KYSE-150 cell line) was “Dose-dependent-effect”. For the same molecule, the DC50 ([14]; kyse-150 cell line) was 49.4 nM, the Activity [15] was 74.74% and the Activity [16] was 4.83%. It also gave a viability at 1 µM [17] of 17.9%, an Emax [18] of 77.8% and an Activity [19] of 5.01%. The DC50 [20] was over 1000 nM, the Activity [21] was 18.97% and the Activity [22] was 14.84%. The Activity [23] was 5.52%, the Activity ([24]; KYSE-150 cell line) was “Dose-dependent-effect” and the DC50 ([24]; kyse-150 cell line) was 37.5 nM. For the same molecule, the Activity [25] was 72.82%, the Activity [26] was “Active” and the Activity [27] was 44.9%. The Activity [28] was “inactive” and the Activity [29] was 13.29%.
